Data reported in article PMC11413853, “Discovery of VU6007496: Challenges in the Development of an M1 Positive Allosteric Modulator Backup Candidate” (ACS Chemical Neuroscience, 2024).

Assays:
[1] = system: CYP3A4, CYP1A2, CYP2C9 and CYP2D6; assay: CYP450 profile (summary over four isoforms); assay type: in vitro ADME; settings: human; summary over the four isoforms; read-out: CYP450 IC50s against CYP3A4, CYP1A2, CYP2C9 and CYP2D6
cardiac ion channels = assay: Electrophysiology panel of cardiac ion channels (summary); assay type: cell-based; settings: 10 μM; whole panel
Description: In a 4-strain Ames assay, with and without S9, both 11 and 12 were negative.
(§1) Table S2. Effects of VU6007496 on Ion Channel Current (Charles River Study 200609.WVN)
(§2) Ion Channel Conc Mean % Standard Standard n Individual Data
(§3) (μM) Inhibition Deviation Error Points (% Inhibition)

[2] = IV/PO pharmacokinetics, rat; assay type: in vivo; settings: rat (SD), dose iv/po 1/10 mg/kg; for clearance / Vd / half-life: Sprague-Dawley, plasma, 1 mg/kg; for clearance: read-out: CLp; for Vd: read-out: Vss; for half-life: read-out: elimination t1/2 (converted)
Protocol: We next conducted multispecies IV/PO PK in parallel as a potential discerning data set. […] With a strong desire to employ dog as the nonrodent safety species, the challenge to address the low %F in dog was enough to triage PAM 12 and focus on the advancement of 11 (Table 3). […]
Pharmacokinetic profiles in rats following oral single escalating doses Single escalating oral dosing in Sprague-Dawley rats was performed at Frontage Laboratories according to their non-GLP Standard Operating Procedure and IACUC protocols. In short, compounds were formulated in 10% Tween 80 in water and dosed at 10 mg/kg. At different times, arterial blood was collected from a femoral artery catheter, and compound concentration was determined in plasma by LC-MS/MS following their non-GLP protocol. PK parameters were determined using Phoenix WinNonlin software (version 6.3). […]

rCYP2J2 = assay: Substrate depletion with recombinant human CYPs, rCYP2J2; assay type: in vitro ADME
Description: (§4) To advance 11 as a candidate and into IND-enabling studies, we next needed to better understand its CYP profile to minimize drug–drug interactions in the clinic. […] We were pleased to see the contribution of another CYP beyond 3A4 for the metabolism of 11.[21] In parallel, we investigated the ability of PAM 11 to induce the expression of CYP450s (measuring mRNA) in cryopreserved human hepatocytes from three separate donors.

CYP1A2 = assay: CYP induction (mRNA) in cryopreserved human hepatocytes, CYP1A2; assay type: in vitro ADME; settings: three donors
Description: as §4

CYP2B6 = assay: CYP induction (mRNA) in cryopreserved human hepatocytes, CYP2B6; assay type: in vitro ADME; settings: three donors
Description: as §4

MET ID in human liver S9 = assay type: in vitro ADME; settings: based on MS peak areas
Description: Eight oxidative metabolites were identified, with the major metabolite in both rat and human being Metabolite A (VU6036463, 24), the result of oxidative N-demethylation of the southern pyrazole (Scheme 4). The majority of other oxidative metabolism occurred on the tetrahydropyran moiety and included ring opening, but there was no amide hydrolysis observed.[21]

Hepatocyte MET ID, dog = assay type: in vitro ADME; settings: 4-h incubation
Description: (§5) More concerning were the results generated via outsourced multispecies hepatocyte MET ID, which were drastically different than the liver S9MET ID. The extent of metabolism for VU6007496 with rat, dog, monkey and human hepatocytes was 64.7, 51.5, 63.9 and 99.5%, respectively (Figure 8). […] In human hepatocytes, PAM 11 was metabolized primarily to Metabolite A (24), the result of oxidative N-demethylation of the southern pyrazole. The other minor metabolites were oxidation on the tetrahydropyran moiety and included ring opening (Metabolite F, 25).[21]

[3] = Hepatocyte MET ID, monkey; assay type: in vitro ADME; settings: 4-h incubation
Description: as §5

Adenosine A2A = assay: Eurofins radioligand binding; set-up: species or system Human; settings: specific binding
Adenosine A3 = assay: Eurofins radioligand binding; set-up: species or system Human; settings: specific binding
Adrenergic α2A = assay: Eurofins radioligand binding; set-up: species or system Human; settings: specific binding
Bradykinin B1 = assay: Eurofins radioligand binding; set-up: species or system Human; settings: specific binding
Bradykinin B2 = assay: Eurofins radioligand binding; set-up: species or system Human; settings: specific binding
[4] = system: Calcium Channel L-Type, Benzothiazepine; assay: Eurofins radioligand binding; set-up: species or system Rat; settings: specific binding
Cannabinoid CB1 = assay: Eurofins radioligand binding; set-up: species or system Human; settings: specific binding
Endothelin ETB = assay: Eurofins radioligand binding; set-up: species or system Human; settings: specific binding
[5] = system: Epidermal Growth Factor (EGF); assay: Eurofins radioligand binding; set-up: species or system Human; settings: specific binding
Estrogen ERα = assay: Eurofins radioligand binding; set-up: species or system Human; settings: specific binding
GABAB1A = assay: Eurofins radioligand binding; set-up: species or system Human; settings: specific binding
Glutamate, NMDA, Agonism = assay: Eurofins radioligand binding; set-up: species or system Rat; settings: specific binding
Histamine H3 = assay: Eurofins radioligand binding; set-up: species or system Human; settings: specific binding
Muscarinic M1 = assay: Eurofins radioligand binding; set-up: species or system Human; settings: specific binding
Muscarinic M2 = assay: Eurofins radioligand binding; set-up: species or system Human; settings: specific binding
Neuropeptide Y Y2 = assay: Eurofins radioligand binding; set-up: species or system Human; settings: specific binding
Opiate κ (OP2, KOP) = assay: Eurofins radioligand binding; set-up: species or system Human; settings: specific binding
Phorbol Ester = assay: Eurofins radioligand binding; set-up: species or system Mouse; settings: specific binding
Potassium Channel hERG = assay: Eurofins radioligand binding; settings: human, specific binding
Thyroid Hormone = assay: Eurofins radioligand binding; set-up: species or system Rat; settings: specific binding
[6] = system: Transporter, Dopamine (DAT); assay: Eurofins radioligand binding; set-up: species or system Human; settings: specific binding
[7] = system: Transporter, Norepinephrine (NET); assay: Eurofins radioligand binding; set-up: species or system Human; settings: specific binding
[8] = system: Transporter, Serotonin (SERT); assay: Eurofins radioligand binding; set-up: species or system Human; settings: specific binding
hERG = system: T1, hERG; assay: Ion channel current (Charles River Study 200609.WVN); assay type: cell-based; settings: human, n 3
T1 construct: Charles River
Description: as §1, §2, §3

Cn1ccc(-c2ccc(Cc3cc(C(=O)NC4CCOCC4)nc4ccn(C)c34)cc2)n1 [compound 11]
IC50 [1]: > 16 µM | inhibition of cardiac ion channels (cardiac ion channels): < 17% | clearance [2]: 1.56 L/h/kg | Vd [2]: 3.2 L/kg | half-life [2]: 6.1 h | F (%) po [2]: 66% | share of hepatic CYP-mediated clearance, rCYP2J2 (rCYP2J2): 2.4% | CYP1A2 induction (mRNA) (CYP1A2): ~3 fold | CYP2B6 induction (mRNA) (CYP2B6): ~8 fold | extent of metabolism, human liver S9 (MET ID in human liver S9): 58.1% | extent of metabolism, dog hepatocytes (Hepatocyte MET ID, dog): 51.5% | extent of metabolism, monkey hepatocytes [3]: 63.9% | % Inhibition at 10 µM (Adenosine A2A): -11% | % Inhibition at 10 µM (Adenosine A3): 38% | % Inhibition at 10 µM (Adrenergic α2A): -7% | % Inhibition at 10 µM (Bradykinin B1): 21% | % Inhibition at 10 µM (Bradykinin B2): -3% | % Inhibition at 10 µM [4]: 12% | % Inhibition at 10 µM (Cannabinoid CB1): 5% | % Inhibition at 10 µM (Endothelin ETB): -5% | % Inhibition at 10 µM [5]: 5% | % Inhibition at 10 µM (Estrogen ERα): 5% | % Inhibition at 10 µM (GABAB1A): 4% | % Inhibition at 10 µM (Glutamate, NMDA, Agonism): 0% | % Inhibition at 10 µM (Histamine H3): -12% | % Inhibition at 10 µM (Muscarinic M1): -8% | % Inhibition at 10 µM (Muscarinic M2): 0% | % Inhibition at 10 µM (Neuropeptide Y Y2): 31% | % Inhibition at 10 µM (Opiate κ (OP2, KOP)): 32% | % Inhibition at 10 µM (Phorbol Ester): -1% | inhibition at 10 µM (Potassium Channel hERG): 11% | % Inhibition at 10 µM (Thyroid Hormone): 2% | % Inhibition at 10 µM [6]: 13% | % Inhibition at 10 µM [7]: 12% | % Inhibition at 10 µM [8]: -7% | inhibition at 10 µM (hERG): 2.6%

Cn1ccc(-c2ccc(Cc3cc(C(=O)NC4CCOCC4)nc4ccsc34)cc2)n1 [compound 12]
IC50 [1]: > 16 µM | inhibition of cardiac ion channels (cardiac ion channels): < 17% | clearance [2]: 1.98 L/h/kg | Vd [2]: 8.2 L/kg | half-life [2]: 5.3 h | F (%) po [2]: 100%
